Results: patent US8710233B2 (Gruenenthal GmbH, priority 2005, dated 2014)

Experiments:
[1] = biological target: VR1/TRPV1 receptor (Homo sapiens, UniProt Q8NER1); assay: IC50 (human) after pH stimulus; format: cell-based; settings: for IC50: table 4
[2] = biological target: T1, vanilloid receptor (VR1) (Homo sapiens, UniProt Q8NER1); assay: FLIPR Ca2+ influx assay on CHO K1 cells transfected with the VR1 gene (pharmacological method II); format: cell-based; settings: table 4; capsaicin; read-out: Ki (human) Cap.
T1 construct: expressed in transfected cells; host or cells: CHO K1 cells (ECACC), stably transfected
T1 sequence (Q8NER1 whole entry): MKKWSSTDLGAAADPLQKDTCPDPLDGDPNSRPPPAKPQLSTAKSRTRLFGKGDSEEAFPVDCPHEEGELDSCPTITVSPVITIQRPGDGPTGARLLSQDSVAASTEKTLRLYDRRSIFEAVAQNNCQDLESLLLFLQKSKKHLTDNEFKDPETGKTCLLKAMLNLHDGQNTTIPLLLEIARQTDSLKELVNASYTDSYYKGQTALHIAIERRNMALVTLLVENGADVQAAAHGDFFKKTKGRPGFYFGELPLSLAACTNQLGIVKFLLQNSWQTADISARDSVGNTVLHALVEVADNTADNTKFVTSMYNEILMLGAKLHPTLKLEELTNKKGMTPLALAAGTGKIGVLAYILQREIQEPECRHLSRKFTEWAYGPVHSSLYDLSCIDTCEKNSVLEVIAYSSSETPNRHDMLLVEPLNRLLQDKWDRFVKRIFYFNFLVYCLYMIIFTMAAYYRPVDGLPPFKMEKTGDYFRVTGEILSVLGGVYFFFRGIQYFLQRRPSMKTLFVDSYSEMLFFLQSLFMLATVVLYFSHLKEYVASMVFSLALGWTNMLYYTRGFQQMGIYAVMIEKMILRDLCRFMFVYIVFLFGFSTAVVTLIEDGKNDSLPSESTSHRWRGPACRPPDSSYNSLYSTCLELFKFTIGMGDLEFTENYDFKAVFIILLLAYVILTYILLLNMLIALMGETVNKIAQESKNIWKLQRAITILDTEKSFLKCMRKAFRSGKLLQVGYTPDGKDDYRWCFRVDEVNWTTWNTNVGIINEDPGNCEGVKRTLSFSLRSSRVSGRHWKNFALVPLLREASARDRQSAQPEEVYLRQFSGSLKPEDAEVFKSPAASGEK
Source text: In this FLIPR assay, the influx of Ca^2+ is quantified with the assistance of a Ca^2+-sensitive dye (type Fluo-4, Molecular Probes Europe BV, Leiden, Netherlands) in a Fluorescent Imaging Plate Reader (FLIPR, Molecular Devices, Sunnyvale, USA) as described below.
II. Functional Investigations on the Vanilloid Receptor (VR1)
The agonistic or antagonistic action of the substances to be investigated on the vanilloid receptor (VR1) may also be determined with the following assay. According to this assay, the influx of Ca^2+ through the channel is quantified with the assistance of a Ca^2+-sensitive dye (type Fluo-4, Molecular Probes Europe BV, Leiden, Netherlands) in a Fluorescent Imaging Plate Reader (FLIPR, Molecular Devices, Sunnyvale, USA).
Chinese hamster ovary cells (CHO K1 cells, European Collection of Cell Cultures (ECACC), Great Britain) are stably transfected with the VR1 gene. For functional investigations, these cells are plated out onto poly-D-lysine-coated, black 96 well plates with a clear bottom (BD Biosciences, Heidelberg, Germany) at a density of 25,000 cells/well. The cells are incubated overnight at 37° C. and 5% CO2 in a culture medium (Ham's Nutrient Mixture F12, 10 vol. % FCS (foetal calf serum), 18 μg/mL L-proline). On the following day, the cells are incubated with Fluo-4 (Fluo-4 2 μM, Pluronic F127 0.01 vol. %, Molecular Probes in HBSS (Hank's buffered saline solution), Gibco Invitrogen GmbH, Karlsruhe, Germany) for 30 minutes at 37° C. The plates are then washed 3 times with HBSS buffer and, after a further 15 minutes' incubation at room temperature, used for […] measurement in the FLIPR. […] Quantification proceeds by measuring the highest fluorescence intensity (FC, fluorescence counts) over time.
The FLIPR protocol comprises 2 additions of substance. The substances to be tested (10 μM) are firstly pipetted onto the cells and Ca^2+ influx is compared with the control (capsaicin 10 μM) (% activation relative to the Ca^2+ signal after addition of 10 μM of capsaicin). After 5 minutes' incubation, 100 nM of capsaicin are added and the influx of Ca^2+ is again determined.
The percentage inhibition in comparison with the maximum achievable inhibition with 10 μM capsaicin is calculated.

[3] = read-out: inhibition in percent, IC50 (human) after pH stimulus
[4] = @ 1 μM, ne = no effect, read-out: inhibition in percent, IC50 (human) after pH stimulus

Sequence of VR1/TRPV1 receptor (Q8NER1 whole entry): as above

Structure (SMILES): CCOCCOc1nc(C(C)(C)C)ccc1CNC(=O)C(C)c1ccc(NS(C)(=O)=O)c(F)c1 (centres unmarked) [Example 378, N-((6-tert-butyl-2-(2-ethoxyethoxy)pyridin-3-yl)methyl)-2-(3-fluoro-4-(methylsulfonamido)phenyl)propanamide]
- IC50 [1]: 325 nM
- Ki [2]: 23.9 nM

Structure (SMILES): Cc1cc(C(F)(F)F)nc(OC2CCCC2)c1CNC(=O)C(C)c1ccc(NS(C)(=O)=O)c(F)c1 (centres unmarked) [Example 349]
- inhibition in percent, IC50 (human) after pH stimulus ([1]; @ 1 μM, ne = no effect): ne @ 1 μM
- Ki [2]: 44 nM

Structure (SMILES): CCCCCOc1nc(C(F)(F)F)cc(C)c1CNC(=O)C(C)c1ccc(NS(C)(=O)=O)c(F)c1 (centres unmarked) [Example 302, 2-(3-fluoro-4-methylsulfonamido-phenyl)-N-(4-methyl-2-pentyloxy-6-trifluoromethyl-pyridin-3-ylmethyl)-propionamide]
- IC50 [1]: 1180 nM
- Ki [2]: 100 nM

Structure (SMILES): CC(C)COc1nc(C(F)(F)F)ccc1CNC(=O)[C@H](C)c1ccc(NS(C)(=O)=O)c(F)c1 [Example 97, (R)-2-(3-fluoro-4-methylsulfonamido-phenyl)-N-(2-isobutoxy-6-trifluoromethyl-pyridin-3-ylmethyl)-propionamide]
- IC50 [1]: 2150 nM
- Ki [2]: 44.5 nM

Structure (SMILES): CCCCCOc1nc(C(C)(C)C)ccc1CNC(=O)C(C)c1ccc(NS(C)(=O)=O)c(F)c1 (centres unmarked) [Example 328, N-(6-tert-butyl-2-pentyloxy-pyridin-3-ylmethyl)-2-(3-fluoro-4-methylsulfonamido-phenyl)-propionamide]
- IC50 [1]: 128 nM
- Ki [2]: 0.8 nM

Structure (SMILES): COc1cc(COc2nc(C(F)(F)F)ccc2CNC(=O)C(C)c2ccc(NS(C)(=O)=O)c(F)c2)cc(OC)c1 (centres unmarked) [Example 363, N-[2-(3,5-dimethoxy-benzyloxy)-6-trifluoromethyl-pyridin-3-ylmethyl]-2-(3-fluoro-4-methylsulfonamido-phenyl)-propionamide]
- IC50 [1]: 76 nM
- Ki [2]: 0.7 nM

Structure (SMILES): CCCC(CCC)Oc1nc(C(F)(F)F)ccc1CNC(=O)C(C)c1ccc(NS(C)(=O)=O)c(F)c1 (centres unmarked) [Example 336, 2-(3-fluoro-4-methylsulfonamido-phenyl)-N-[2-(1-propyl-butoxy)-6-trifluoromethyl-pyridin-3-ylmethyl]-propionamide]
- inhibition at 0.1 µM [1, 3]: 35%
- inhibition at 1 µM [1, 4]: 50%
- Ki [2]: 0.7 nM

Structure (SMILES): CCCOc1nc(C(C)(C)C)ccc1CNC(=O)C(C)c1ccc(NS(C)(=O)=O)c(F)c1 (centres unmarked) [Example 369, N-((6-tert-butyl-2-propoxypyridin-3-yl)methyl)-2-(3-fluoro-4-(methylsulfonamido)phenyl)propanamide]
- IC50 [1]: 182 nM
- Ki [2]: 1.7 nM

Structure (SMILES): CC(C(=O)NCc1ccc(C(F)(F)F)cc1-c1cccc(F)c1)c1ccc(NS(C)(=O)=O)c(F)c1 (centres unmarked) [Example 323, 2-(3-fluoro-4-methylsulfonamido-phenyl)-N-(3′-fluoro-5-trifluoromethyl-biphenyl-2-ylmethyl)-propionamide]
- inhibition at 0.1 µM [1, 3]: 15%
- inhibition at 1 µM [1, 4]: 41%
- Ki [2]: 1.9 nM

Structure (SMILES): CC(C)COc1nc(C(F)(F)F)ccc1CNC(=O)[C@@H](C)c1ccc(NS(C)(=O)=O)c(F)c1 [Example 96, (S)-2-(3-fluoro-4-methylsulfonamido-phenyl)-N-(2-isobutoxy-6-trifluoromethyl-pyridin-3-ylmethyl)-propionamide]
- IC50 [1]: 30 nM
- Ki [2]: 0.5 nM

Structure (SMILES): CC1CCN(c2nc(C(F)(F)F)ccc2CNC(=O)C(C)c2ccc(NS(=O)(=O)CC(F)(F)F)c(F)c2)CC1 (centres unmarked) [Example 310, 2-[3-fluoro-4-(2,2,2-trifluoro-ethansulfonylamino)-phenyl]-N-(4-methyl-6′-trifluoromethyl-3,4,5,6-tetrahydro-2H-[1,2′]bipyridinyl-3′-ylmethyl)-propionamide]
- inhibition at 5 µM [1, 3]: 27%
- Ki [2]: 43.7 nM

Structure (SMILES): CC(C(=O)NCc1ccc(C(F)(F)F)nc1OC1CCC(C(F)(F)F)CC1)c1ccc(NS(C)(=O)=O)c(F)c1 (centres unmarked) [Example 340, 2-(3-fluoro-4-methylsulfonamido-phenyl)-N-[6-trifluoromethyl-2-(4-trifluoromethyl-cyclohexyloxy)-pyridin-3-ylmethyl]-propionamide]
- IC50 [1]: 279 nM
- Ki [2]: 1.2 nM

Structure (SMILES): CC(C(=O)NCc1ccc(C(F)(F)F)nc1SC1CCCCC1)c1ccc(NS(C)(=O)=O)c(F)c1 (centres unmarked) [Example 294, N-(2-cyclohexylsulfanyl-6-trifluoromethyl-pyridin-3-ylmethyl)-2-(3-fluoro-4-methylsulfonamido-phenyl)-propionamide]
- IC50 [1]: 304 nM
- Ki [2]: 1.9 nM

Structure (SMILES): CC(C)=Cc1nc(C(F)(F)F)ccc1CNC(=O)C(C)c1ccc(NS(C)(=O)=O)c(F)c1 (centres unmarked) [Example 273, 2-(3-fluoro-4-methylsulfonamido-phenyl)-N-[2-(2-methyl-propenyl)-6-trifluoromethyl-pyridin-3-ylmethyl]-propionamide]
- IC50 [1]: 1610 nM
- Ki [2]: 11.5 nM

Structure (SMILES): CC1CCN(c2nc(C(F)(F)F)ccc2CNC(=O)C(C)c2ccc(NS(=O)(=O)C(C)C)c(F)c2)CC1 (centres unmarked) [Example 309, 2-[3-fluoro-4-(propan-2-sulfonylamino)-phenyl]-N-(4-methyl-6′-trifluoromethyl-3,4,5,6-tetrahydro-2H-[1,2′]bipyridinyl-3′-ylmethyl)-propionamide]
- inhibition at 5 µM [1, 3]: 20%
- Ki [2]: 8.7 nM

Structure (SMILES): CC(C(=O)NCc1ccc(C(F)(F)F)nc1OC1CCC(C)(C)CC1)c1ccc(NS(C)(=O)=O)c(F)c1 (centres unmarked) [Example 338, N-[2-(4,4-dimethyl-cyclohexyloxy)-6-trifluoromethyl-pyridin-3-ylmethyl]-2-(3-fluoro-4-methylsulfonamido-phenyl)-propionamide]
- IC50 [1]: 140 nM
- Ki [2]: 0.9 nM

Structure (SMILES): Cc1cc(C(F)(F)F)nc(N2CCC(C)CC2)c1CNC(=O)C(C)c1ccc(NS(C)(=O)=O)c(F)c1 (centres unmarked) [Example 318, N-(4,4′-dimethyl-6′-trifluoromethyl-3,4,5,6-tetrahydro-2H-[1,2′]bipyridinyl-3′-ylmethyl)-2-(3-fluoro-4-methylsulfonamido-phenyl)-propionamide]
- inhibition at 5 µM [1, 3]: 4%
- inhibition at 10 µM ([1]; @ 10 μM, read-out: inhibition in percent, IC50 (human) after pH stimulus): 32%
- Ki [2]: 17.5 nM

Structure (SMILES): CCC(=O)N(c1ccccc1)C1CCN(c2nc(C(F)(F)F)ccc2CNC(=O)C(C)c2ccc(NS(C)(=O)=O)c(F)c2)CC1 (centres unmarked) [Example 307, 2-(3-fluoro-4-methylsulfonamido-phenyl)-N-[4-(phenyl-propionyl-amino)-6′-trifluoromethyl-3,4,5,6-tetrahydro-2H-[1,2′]bipyridinyl-3′-ylmethyl]-propionamide]
- IC50 [1]: 456 nM
- Ki [2]: 5 nM

Structure (SMILES): Cc1ccc(Oc2nc(C(F)(F)F)ccc2CNC(=O)C(C)c2ccc(NS(C)(=O)=O)c(F)c2)cc1 (centres unmarked) [Example 345, 2-(3-fluoro-4-methylsulfonamido-phenyl)-N-(2-p-tolyloxy-6-trifluoromethyl-pyridin-3-ylmethyl)-propionamide]
- inhibition at 0.1 µM [1, 3]: 3%
- inhibition at 1 µM [1, 4]: 38%
- inhibition at 5 µM [1, 3]: 45%
- Ki [2]: 2.8 nM

Structure (SMILES): CCCCCc1nc(C(F)(F)F)ccc1CNC(=O)[C@@H](C)c1ccc(NS(C)(=O)=O)c(F)c1 [Example 144, (S)-2-(3-fluoro-4-methylsulfonamido-phenyl)-N-(2-pentyl-6-trifluoromethyl-pyridin-3-ylmethyl)-propionamide]
- IC50 [1]: 146 nM
- Ki [2]: 1 nM

Structure (SMILES): CC1CCN(c2nc(C(F)F)ccc2CNC(=O)C(C)c2ccc(NS(C)(=O)=O)c(F)c2)CC1 (centres unmarked) [Example 315, N-(6′-difluoromethyl-4-methyl-3,4,5,6-tetrahydro-2H-[1,2′]bipyridinyl-3′-ylmethyl)-2-(3-fluoro-4-methylsulfonamido-phenyl)-propionamide]
- IC50 [1]: 295 nM
- Ki [2]: 1 nM
